The text below walks through data of ChEMBL document CHEMBL2021887, “Olean-18-ene triterpenoids from Celastraceae species inhibit HIV replication targeting NF-kB and Sp1 dependent transcription” (Eur J Med Chem, 2012).

Each structure is given as a SMILES string. The source made the active and inactive calls. The calls are words filed in the database; no cut-off is given here.

In data set [1] the test system is MT2. Briefly: Cytotoxicity against non-infected human MT2 cells at 10 uM after 48 hrs by CellTiter Glo assay. It is filed as cell-based. The settings on record: mt2, 48 h.
The subject of data set [2] is MT2. The experiment in a line: Inhibition of Sp1 transcription in X4 tropic HIV1 pNL4.3-Luc transfected human MT2 cells at 20 uM dosed post transfection and measured 24 hrs post compound dose by luciferase reporter gene assay. It counts as functional. On the technique in general: A reporter such as luciferase makes a cellular process visible.
The test system of data set [3] is MT2. The experiment in a line: Inhibition of NFkappaB transcription in X4 tropic HIV1 pNL4.3-Luc transfected human MT2 cells at 20 uM dosed post transfection and measured 24 hrs post compound dose by luciferase reporter gene assay. It counts as functional.
Data set [4] relates to Human immunodeficiency virus 1. Briefly: Antiviral activity against X4 tropic HIV1 pNL4.3-Ren infected in human MT2 cells at 10 uM dosed simultaneously with virus infection measured 48 hrs post-infection by recombinant virus assay. It counts as functional. The settings on record: Human immunodeficiency virus 1, pNL4.3-Ren, MT2, 48 h; values are per cent of control.
A short description of data set [5]: Cytotoxicity against non-infected human MT2 cells after 48 hrs by CellTiter Glo assay. It is filed as cell-based.
Data set [6] relates to Human immunodeficiency virus 1. Briefly: Inhibition of viral transcription in X4 tropic HIV1 pNL4.3-Luc transfected human MT2 cells at 20 uM dosed post transfection and measured 24 hrs post compound dose by luciferase reporter gene assay. It is filed as functional. The settings on record: Human immunodeficiency virus 1, pNL4.3-Luc, MT2, 24 h; read-out: INH.
The test system of data set [7] is Human immunodeficiency virus 1. The experiment in a line: Antiviral activity against luciferase tagged VSV envelope pseudotyped HIV1 infected in human MT2 cells dosed simultaneously with virus infection measured 48 hrs post-infection by recombinant virus assay. It counts as functional, organism-based. The settings on record: Human immunodeficiency virus 1, MT2, 48 h.

In data set [8] the test system is Human immunodeficiency virus 1. The experiment in a line: Antiviral activity against X4 tropic HIV1 pNL4.3-Ren infected in human MT2 cells dosed simultaneously with virus infection measured 48 hrs post-infection by recombinant virus assay. It is filed as functional, organism-based. The settings on record: Human immunodeficiency virus 1, pNL4.3-Ren, MT2, 48 h.

In the data set on MT2 [1], `CC1(C)C=C2[C@H]3CC[C@@H]4[C@@]5(C)CCC(=O)C(C)(C)[C@@H]5[C@H](O)C[C@@]4(C)[C@]3(C)CC[C@@]2(C)CC1` had an Activity of 222%. The inhibition result in the data set with MT2 [2] and with MT2 [3] was “Active” each time. Besides, the residual activity (in general, the signal under treatment as a percentage of the control signal) at 10 µM in data set [4] is 28%. In addition, the CC50 (as a rule, the concentration giving 50% cytotoxicity) at 48 h in data set [5] was > 100 µM. Also, the percent inhibition at 20 µM in data set [6] is < 50%. The IC50 (commonly the point on the concentration scale where inhibition reaches its midpoint) stood at 5.14 µM in data set [7] and 23.8 µM in data set [8].

With `CC1(C)C=C2[C@H]3C[C@@H](O)[C@@H]4[C@@]5(C)CC[C@H](O)C(C)(C)[C@@H]5CC[C@@]4(C)[C@]3(C)CC[C@@]2(C)CC1` [NIVADIOL], the residual activity at 10 µM in data set [4] is 121%.

The compound `CC1(C)[C@@H](O)CC[C@]2(C)[C@H]3CC[C@@H]4C5=C[C@](C)(CO)CC[C@]5(C)CC[C@@]4(C)[C@]3(C)CC[C@@H]12` registered an Activity with MT2 [1] of 67%. Further, the inhibition result with MT2 [2] and in the data set on MT2 [3] was “Active” in each case. In addition, in data set [4], the residual activity at 10 µM was determined as 17%. Also, the CC50 at 48 h in data set [5] is > 100 µM. For the same compound, the percent inhibition at 20 µM in data set [6] was < 50%. Besides, the values for the IC50 in data set [7] and in data set [8] were 6.56 µM and 10.4 µM, respectively.

As for `CC1(C)C=C2[C@H]3CC[C@@H]4[C@@]5(C)CC[C@H](O)C(C)(C)[C@@H]5CC[C@@]4(C)[C@]3(C)CC[C@@]2(C)CC1` [GERMANICOL], the residual activity at 10 µM in data set [4] was 86%.

On to `CC1(C)C(=O)CC[C@]2(C)[C@H]3CC[C@@H]4C5=C[C@](C)(CO)CC[C@]5(C)CC[C@@]4(C)[C@]3(C)C[C@@H](O)[C@@H]12`, for which the Activity with MT2 [1] is recorded as 62%. Further, the inhibition result with MT2 [2] and in the data set on MT2 [3] was “Active” throughout. The residual activity at 10 µM in data set [4] was found to be 16%. Besides, the CC50 at 48 h in data set [5] is > 100 µM. Further, the percent inhibition at 20 µM in data set [6] is < 50%. The IC50 worked out at 20 µM in data set [7] and 65.6 µM in data set [8].

For `CC1(C)C(=O)CC[C@]2(C)[C@H]3CC[C@@H]4C5=C[C@](C)(CO)CC[C@]5(C)CC[C@@]4(C)[C@]3(C)CC[C@@H]12`, the residual activity at 10 µM in data set [4] came to 50%.

In the case of `CC1(C)C=C2[C@H]3CC[C@@H]4[C@@]5(C)CC[C@H](O)C(C)(C)[C@@H]5CC[C@@]4(C)[C@]3(C)CC[C@@]2(C)C[C@H]1O`, the Activity with MT2 [1] was determined as 69%. The inhibition result with MT2 [2] and in the data set on MT2 [3] was “Active” each time. Also, the residual activity at 10 µM in data set [4] came to 18%. Further, the CC50 at 48 h in data set [5] was > 100 µM. The percent inhibition at 20 µM in data set [6] was < 50%. The IC50 is 54.3 µM in data set [7] and 64.4 µM in data set [8].

Consider `CC(=O)OC[C@@]1(C)C=C2[C@H]3CC[C@@H]4[C@@]5(C)CCC(=O)C(C)(C)[C@@H]5CC[C@@]4(C)[C@]3(C)CC[C@@]2(C)CC1`, for which the Activity with MT2 [1] is given as 116%. Further, the residual activity at 10 µM in data set [4] worked out at 116%.

On to `CC(=O)O[C@H]1CC[C@]2(C)[C@H]3CC[C@@H]4C5=CC(C)(C)[C@H](OC(C)=O)C[C@]5(C)CC[C@@]4(C)[C@]3(C)CC[C@H]2C1(C)C`, for which the Activity with MT2 [1] is 93%. In addition, the residual activity at 10 µM in data set [4] stood at 107%.

Regarding `CC1(C)C=C2[C@H]3CC[C@@H]4[C@@]5(C)CCC(=O)C(C)(C)[C@@H]5CC[C@@]4(C)[C@]3(C)CC[C@@]2(C)CC1` [GERMANICONE], in data set [4], the residual activity at 10 µM was 84%.

In turn, `CC1(C)C=C2[C@H]3CC[C@@H]4[C@@]5(C)CCC(=O)C(C)(C)[C@@H]5CC[C@@]4(C)[C@]3(C)CC[C@@]2(C)CC1=O` showed an Activity in the data set with MT2 [1] of 222%. For the same compound, the inhibition entry with MT2 [2] and in the data set with MT2 [3] was “Active” throughout. In data set [4], the residual activity at 10 µM stood at 14%. In addition, the CC50 at 48 h in data set [5] is > 100 µM. Further, the percent inhibition at 20 µM in data set [6] was < 50%. The results for the IC50 in data set [7] and in data set [8] were 3.2 µM and 4.04 µM, respectively.

With `CC1(C)C=C2[C@H]3C[C@@H](O)[C@@H]4[C@@]5(C)CC[C@H](O)C(C)(C)[C@@H]5CC[C@@]4(C)[C@]3(C)CC[C@@]2(CO)CC1`, the residual activity at 10 µM in data set [4] was found to be 78%.

For `CC(=O)O[C@H]1CC[C@]2(C)[C@H]3CC[C@@H]4C5=CC(C)(C)CC[C@]5(C)CC[C@@]4(C)[C@]3(C)C[C@@H](O)[C@H]2C1(C)C`, the Activity with MT2 [1] came to 124%. The residual activity at 10 µM in data set [4] came out at 102%.

As to `CC1(C)C=C2[C@H]3CC[C@@H]4[C@@]5(C)CC[C@H](O)C(C)(C)[C@@H]5[C@H](O)C[C@@]4(C)[C@]3(C)CC[C@@]2(C)CC1`, the Activity in the data set on MT2 [1] is reported as 5%. The residual activity at 10 µM in data set [4] turned out to be 1%. Further, the CC50 at 48 h in data set [5] was 25.5 µM. The IC50 in data set [7] worked out at 4.32 µM; in data set [8] it was 11.6 µM.

`CC1(C)C=C2[C@H]3CC[C@@H]4[C@@]5(C)CCC(=O)C(C)(C)[C@@H]5CC[C@@]4(C)[C@]3(C)CC[C@@]2(C)C[C@H]1O` yielded an Activity in the data set with MT2 [1] of 74%. Also, the inhibition entry in the data set with MT2 [2] and in the data set on MT2 [3] was “Active” each time. The residual activity at 10 µM in data set [4] is 22%. Further, in data set [5], the CC50 at 48 h was > 100 µM. Besides, the percent inhibition at 20 µM in data set [6] was < 50%. Besides, the IC50 in data set [7] and in data set [8] was 20 µM each time.
